Holding throughout (test): NCI anticancer screen, dose series, 48 h
Test [1] has as its system 786-0 renal.
In test [2] the test system is HOP-92 NSCLC.
The test system of test [3] is NCI/ADR-RES ovarian.
Test [4] relates to CAKI-1 renal.
Test [5] relates to RPMI-8226 leukemia.
For test [6], the system named is SNB-19 CNS.
Test [7] concerns NCI-H226 lung.
For test [8], the system named is A498 renal.
For test [9], the system named is SK-MEL-28 melanoma.
Test [10] relates to COLO 205 colon.
The test system of test [11] is PC-3 prostate.
The test system of test [12] is MDA-N.
Test [13] deals with MCF7 breast.
Test [14] concerns OVCAR-4 ovarian.
The test system of test [15] is NCI-H23 lung.
Test [16] has as its system IGROV1 ovarian.

The text below walks through data of PubChem BioAssay (NCI).

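A five-concentration, 48-hour dose response in 96-well plates underlies each endpoint, interpolated linearly between surrounding concentrations. TGI denotes the concentration required for complete inhibition of growth.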

Take `CC[C@H](C)[C@H]1NC(=O)[C@@H](NC(=O)[C@@H](CC(C)C)N(C)C(=O)C2CCCN2C(=O)[C@H](C)O)[C@@H](C)OC(=O)[C@H](Cc2ccc(OC)cc2)N(C)C(=O)[C@@H]2CCCN2C(=O)[C@H](CCCCNC(=O)OCc2ccccc2)NC(=O)[C@H](C)C(=O)[C@H](C(C)C)OC(=O)C[C@@H]1O` (stereo partly drawn): the TGI in test [1] was greater than 25 µM; in [2], greater than 25 µM; in test [3], greater than 25 µM; in test [4], greater than 25 µM; in test [5], 19.7 µM; in test [6] it was greater than 25 µM. The TGI in test [7] is greater than 25 µM; in test [8] it was greater than 25 µM; in test [9] it was greater than 25 µM; in [10], 18.9 µM; in test [11], 16.5 µM; in [12], greater than 25 µM. Also, the TGI in test [13], in test [14], in test [15] and in test [16] was greater than 25 µM throughout.
Regarding `C=C1C(=O)O[C@H]2C/C(C)=C/CC[C@@]3(C)O[C@](C)(CC[C@@H]3I)[C@@H](I)C[C@@H]12`, the TGI turned out to be 10.9 µM in test [1]; 13 µM in test [2]; 5.65 µM in test [3]; 14 µM in [4]; 5.12 µM in test [5]; 13.5 µM in [6]. Further, the TGI in test [7] is 2.13 µM; in [8] it was 17.5 µM; in test [9], 14.1 µM; in test [10], 12.5 µM; in test [11] it was 22.9 µM; in test [12] it was 10.9 µM. In addition, the TGI in [13] was 9.61 µM; in test [14], 14.3 µM; in [15] it was 18.5 µM; in test [16], 6.62 µM.
Turning to `O=C1/C(=C\Oc2ccc(F)cc2)N2CCC1CC2`, the TGI in test [1], in [2], in test [3], in test [4], in test [5] and in test [6] was greater than 100 µM each time. Moreover, the TGI in test [7], in [8], in test [9], in test [10], in test [11] and in test [12] was greater than 100 µM in each case. Further, the TGI in test [13], in [14], in test [15] and in test [16] was greater than 100 µM each time.
With `c1ccc2c(Cc3[nH]c4ccccc4c3Cc3c[nH]c4ccccc34)c[nH]c2c1`, the TGI in test [1] was 4.25 µM; in test [2], 18.1 µM; in [3] it was 17.2 µM; in test [4] it was 10.3 µM; in test [5], 12.2 µM; in [6] it was 25.3 µM. Moreover, the TGI in test [7] was found to be 24.5 µM; in test [8], 5.73 µM; in test [9], 23.9 µM; in [10], 3.99 µM; in test [11], 8.37 µM; in [12] it was 5.47 µM. The TGI in test [13] was greater than 26.5 µM; in test [14], 13.2 µM; in [15] it was 7.49 µM; in test [16], 13.7 µM.
Regarding `COc1ccc(N=NC(=O)NC(Cc2ccccc2)C(=O)O)cc1` (stereo not drawn), the TGI in test [1], in [2], in [3], in test [4], in test [5] and in test [6] was greater than 100 µM each time. The TGI in test [7], in [8], in [9], in test [10], in [11] and in test [12] was greater than 100 µM in each case. The TGI in test [13], in [14], in test [15] and in test [16] was greater than 100 µM each time.
In the case of `Cc1cc(S(=O)(=O)Nc2n[nH]c(Nc3ccc(Cl)cc3)n2)c(S)cc1Cl`, the TGI in [1], in test [2], in test [3], in test [4], in test [5] and in [6] was greater than 100 µM throughout. For the same molecule, the TGI in [7], in test [8], in test [9], in test [10], in test [11] and in test [12] was greater than 100 µM throughout. In addition, the TGI in test [13], in test [14], in [15] and in test [16] was greater than 100 µM each time.
Consider `C#C[C@]1(O)CC[C@H]2[C@@H]3CCC4=C/C(=N/OCCN(C)C)CC[C@]4(C)[C@H]3CC[C@@]21C`, for which the TGI in [1], in [2], in test [3], in test [4], in [5] and in test [6] was greater than 100 µM each time. The TGI in test [7] was 85.8 µM; in [8], greater than 100 µM; in test [9], greater than 100 µM; in test [10], greater than 100 µM; in [11], greater than 100 µM; in test [12] it was 35.1 µM. Further, the TGI in test [13], in test [14], in test [15] and in test [16] was greater than 100 µM each time.
As to `COc1cc(NS(C)(=O)=O)ccc1Nc1cc[nH]c2ccc3nccc3c12`, the TGI in [1] was 27.7 µM; in [2] it was 24.8 µM; in [3], greater than 100 µM; in test [4], 32.5 µM; in [5], 31.7 µM; in test [6], 29.9 µM. Further, the TGI is 36.9 µM in [7]; 30.7 µM in [8]; 31.2 µM in test [9]; 41.4 µM in test [10]; 26 µM in test [11]; 30.8 µM in [12]. Further, the TGI in test [13] is 35.9 µM; in test [14], 29.7 µM; in [15], 29.8 µM; in test [16] it was 31.2 µM.
